Values of other authors in patent US20080248135A1, “Combination Therapy for Otitis with Antiseptic and pH Adjustment” (Collegium Pharmaceutical, Inc., priority 2006, published 2008).

Experiments:
P. aeruginosa = conditions: background statement
Aspergillus = conditions: antifungal creams; background statement

Row | Molecule | Activity against P. aeruginosa (P. aeruginosa) | further results
1 | CC1(C)S[C@@H]2[C@H](NC(=O)[C@H](N)c3ccccc3)C(=O)N2[C@H]1C(=O)O [ampicillin] | no activity | 
2 | N[C@@H](C(=O)N[C@@H]1C(=O)N2C(C(=O)O)=C(Cl)CS[C@H]12)c1ccccc1 [cefaclor] | no activity | 
3 | CC1=C(C(=O)O)N2C(=O)[C@@H](NC(=O)[C@H](N)c3ccccc3)[C@H]2SC1 [cephalexin] | no activity | 
4 | Clc1ccccc1C(c1ccccc1)(c1ccccc1)n1ccnc1 [clotrimazole] |  | Effectiveness against Aspergillus (Aspergillus): not effective
5 | II [iodine, elemental iodine (I2)] |  | Saturating concentration of iodine in water: ca. 0.0013 M
6 | C[C@@H]1[C@H](O)[C@@H](C)/C=C/C=C/CC/C=C/C=C/C=C/C=C/C(O[C@H]2O[C@H](C)[C@@H](O)[C@H](N)[C@@H]2O)CC2O[C@](O)(CC(O)C(O)CCC(O)CC(O)CC(O)CC(=O)O[C@H]1C)CC(O)C2C(=O)O (stereo partly shown) [nystatin] |  | Effectiveness against Aspergillus (Aspergillus): not effective
7 | trimethoprim-sulfamethoxazole | no activity | 
